Test results published in US8410056B2, “Pro-oxidant anti-cancer compounds” (priority 2006, dated 2013).
Entries after “also recorded” stand apart in the source; their conditions may differ. Ends that are not written are not given here.

Assays:
[1] = system: MDA-MB-453, MCF-7 and NeuTL breast cancer cells; assay: ATP bioluminescence assay; type: cell-based, human; murine; conditions: 6 or 24 h; normoxia or hypoxia
Procedure: (§1) Cell culture and treatment. […] Cells were cultured in DMEM with 10% FCS, 100 U/ml penicillin and 100 μg/ml streptomycin at 37° C. in a humidified atmosphere of 5% CO2. Mitochondrial complex I-deficient (Breen and Scheffler 1979; DeFrancesco et al 1976; Scheffler et al 2004) and complex II-deficient cells (Albayrak et al 2003; Oostveen et al 1995) were grown in DMEM with 10% FCS, […] glucose and non-essential amino acids.
(§2) At approximately 70% confluency, cells were treated with up to 50 μM α-TOS (Sigma), up to 100 μM 3-BP (Aldrich) or 30 ng/ml of human recombinant tumor necrosis factor-related apoptosis—inducing ligand (TRAIL) (Weber et al, 2002) under normoxic or hypoxic conditions. For hypoxia, cells overlaid with nitrogen-purged medium were placed in a hypoxic chamber pre-flushed extensively with nitrogen. The hypoxic chamber with cells was then placed in the incubator as required. α-TOS was dissolved in ethanol and used such that the final ethanol concentration in cell culture medium was <0.1% (v/v). Stock solutions of 3-BP were prepared in PBS prior to use.
ATP measurement. MDA-MB-453 and NeuTL cells were seeded at 2×10^5 per ml and MCF-7 cells at 1.2×10^5 per ml into 96-well tissue culture microtitre plates and allowed to recover overnight before use. Cells were incubated for 6 or 24 h with α-TOS or 3-BP under normoxia or hypoxia as described above. ATP levels were then measured using an ATP bioluminescence assay kit HSII (Roche Applied Science) according to the manufacturer's instructions. Briefly, control or treated cells were transferred into black microtitre plates after incubation for 5 min at room temperature with the cell lysis reagent. Luciferase reagent was added and the signal detected immediately using a Fluorostar Optima plate reader (BMG Labtech). Triplicate wells were read for each condition and data evaluated using a standard calibration curve prepared with known concentrations of ATP.

MDA-MB-453 cells = assay: Apoptosis, annexin V-FITC method; type: cell-based, human; conditions: for apoptosis: MDA-MB-453 (erbB2-high), normoxia or hypoxia; for apoptosis after Akt1 knock-down: pre-treated with 60 pM Akt1 siRNA for 24 h, then drug 24 h
Procedure: as §1, §2
Apoptosis assessment. Apoptosis was quantified using the annexin V-FITC method, which detects phosphatidyl serine externalized in the early phases of apoptosis (Boersma et al, 1996). Briefly, cells were plated at 10^5 per well in 24-well plates and, after an overnight recuperation, treated with α-TOS or 3-BP alone or in combination. Floating and attached cells were harvested, washed with PBS, resuspended in 0.2 ml binding buffer (10 mM Hepes, 140 mM NaCl, 5 mM CaCl2, pH 7.4), incubated for 30 min at 4° C. with 2 μl annexin V-FITC (PharMingen), supplemented with 200 μl of 50 μg/ml propidium iodide (PI; Sigma), and analyzed by flow cytometry (FACScalibur, Becton Dickinson) using channel 1 for annexin V-FITC binding and channel 2 for PI staining. Cell death was quantified as the percentage of cells with increased annexin V binding and PI staining.
RNA interference (RNAi). Short-interfering RNA (siRNA) oligonucleotides with 3′-dTdT overhangs specific for Akt1 were synthesized by Qiagen. The sequences are as follows: target sequence: […] (SEQ ID NO 2); siRNA duplex sequences: sense—r([…] )dTdT (SEQ ID NO 3), antisense—r([…] )dTdT (SEQ ID NO 4). The transfection of cultured MDA-MB-453 cells with siRNA was performed using OligofectAmine (Invitrogen) and OptiMEM according to the manufacturer's instructions. Briefly, cells were allowed to reach 50% confluency and supplemented with […] siRNA pre-incubated with OligofectAmine and overlayed with OptiMEM. Cells were washed 24 h later with PBS, overlayed with complete DMEM and treated as required after an additional 24 h.
Transfection of MDA-MB-453 cells with siRNAs was performed using OligofectAmine and OptiMEM. Briefly, cells were allowed to reach ˜50% confluency and supplemented with 60 pmol/l siRNA pre-incubated with OligofectAmine and overlayed with OptiMEM. Cells were washed 24 h later with PBS, overlaid with complete DMEM, cultured for an additional 24 h, 48 h and transgene expression confirmed using Western blotting before they were used for further experiments.

MCF-7 cells = assay: Apoptosis, annexin V-FITC method; type: cell-based, human; conditions: MCF-7 (erbB2-low); 24 h; normoxia or hypoxia
Procedure: as §1, §2
Apoptosis assessment. Apoptosis was quantified using the annexin V-FITC method, which detects phosphatidyl serine externalized in the early phases of apoptosis (Boersma et al, 1996). Briefly, cells were plated at 10^5 per well in 24-well plates and, after an overnight recuperation, treated with α-TOS or 3-BP alone or in combination. Floating and attached cells were harvested, washed with PBS, resuspended in 0.2 ml binding buffer (10 mM Hepes, 140 mM NaCl, 5 mM CaCl2, pH 7.4), incubated for 30 min at 4° C. with 2 μl annexin V-FITC (PharMingen), supplemented with 200 μl of 50 μg/ml propidium iodide (PI; Sigma), and analyzed by flow cytometry (FACScalibur, Becton Dickinson) using channel 1 for annexin V-FITC binding and channel 2 for PI staining. Cell death was quantified as the percentage of cells with increased annexin V binding and PI staining. […]

[2] = molecular target: T1, complex II/SDH-dependent activity in NeuTL cells (Mus musculus, UniProt Q8K2B3+Q9CQA3+Q9CXV1+Q9CZB0); assay: MTT reduction assay of complex II/SDH activity in whole cells; type: cell-based, murine; conditions: for inhibition of MTT reduction after MitoQ pre-incubation: cells pre-incubated 1 h with MitoQ; for enzymatic reduction of MTT: within a few hours of treatment
T1 construct: For specifically measuring complex II activity in whole cells; endogenous in cells; host or cells: NeuTL murine breast cancer cells
Procedure: MTT assay. MTT solutions were prepared immediately before use by dissolving 2.5 mg/ml 3-(4,5-dimethyl[…] (MTT) (Sigma) in PBS alone or phenol red-free RPMI medium containing 20 mM succinic acid, pH 7.4. Stock solutions of 3-nitropropionic acid (3NPA) in ethanol, thenoyltrifluoroacetone (TTFA) in DMSO, 3-BP in PBS, α-TOS in DMSO, and MitoQ (Alleva et al, 2003, James et al, 2005) in ethanol were prepared. The drugs were tested on NeuTL cells cultured in exponential growth phase in 96-well microtitre plates using 4-8 replicate wells per dilution assayed. To assess the ability of MitoQ to restore MTT reduction, cells were pre-incubated for 60 min with 2 or 5 μM MitoQ. Final concentrations of ethanol or DMSO in cultures were ≦0.1%. Treated and control cells were allowed to reduce MTT to blue formazan crystals for 2 or 4 h at 37° C. and 5% CO2. After incubation, culture supernatants were removed except for 30 μl, before the formazan crystals were solubilized by addition of 150 μl DMSO, and absorbance values were measured at 570 nm using a Fluorostar Optima plate reader.
To this end, the present inventors investigated whether α-TOS interferes with UbQ binding in complex II. For specifically measuring complex II activity in whole cells, a short-term (1-2 h) assay was used based on the reduction of the tetrazolium salt, MTT (Maehara et al, 1988). […] For this, oxidative respiration of murine NeuTL breast cancer cells was sustained on high levels of succinate (20 mM), thereby promoting the SDH activity of complex II (Maehara et al, 1988). The cells were then assayed within 1-2 h for their ability to enzymatically reduce MTT, which under conditions of high succinate becomes a specific indicator of complex II/SDH-dependent activity (Maehara et al, 1988, Berridge and Tan, 1993).

[3] = system: erbB2 highly positive breast carcinomas; conditions: α-TOS 10 μmoles i.p. every 3 d; 3-BP 0.2 μmoles daily intratumorally
Procedure: (A) Nude mice were inoculated with MCF-7 cells and, after tumors became established, the animals were treated once every 3 d with 10 μmoles per mouse of α-TOS dissolved in DMSO or with DMSO alone, by intraperitoneal (i.p.) injection. Tumor size was measured using calipers and was correlated to the size of the carcinomas at the onset of the therapy. Four animals were used in each group. The results shown are mean values±S.E. The symbol ‘*’ denotes significant difference (p<0.05). (B) Female FVB/N erbB2 mice with palpable tumors (see General Materials and Methods) received either 10 μmoles α-TOS solubilized in corn oil/4% ethanol (n=11) or the corn oil/4% ethanol alone (control, n=9) by i.p. injection once every 3 d, or 0.2 μmoles 3-BP (n=8) in PBS at the tumor site every day. Tumor size was recorded using calipers. Two independent experiments were conducted. Results are represented as mean values±S.E. The symbol ‘*’ denotes significant difference (p<0.05) in the analysis of variance between the 3-BP and α-TOS curves.
Mouse tumor experiments. Nude mice were inoculated subcutaneously with MCF-7 cells (2×10^6 cells/mouse). After tumors developed (diameter of 3-7 mm), mice were injected intraperitoneally with 10 μmoles α-TOS in DMSO every 3 days. Control mice were injected with an equal volume (100 μl) of DMSO only. Tumor size was estimated by measuring with digital calipers. A colony of transgenic FVB/N2O2 rat c-neu mice carrying the rat HER-2/neu protooncogene driven by the MMTV promoter on the H-2^q FVB/N background (Guy et al, 1992) was established at the Griffith University Animal Facility and maintained under strict inbreeding conditions. The presence of the transgene was routinely confirmed by PCR. Approximately 70% of the female mice developed spontaneous mammary carcinomas with a mean latency time of 10 months. Female transgenic FVB/N2O2 rat c-neu mice bearing progressively growing tumors with a mean diameter of 10±5 mm were randomly assigned to control or treatment groups. Tumor size was measured using digital calipers. […]

B16-F1/nude mice = conditions: Kogure et al, 2005; cited from earlier work
Jurkat = conditions: cited from earlier work
A549 = conditions: cited from earlier work
C1271 = conditions: Kogure et al, 2004; cited from earlier work
NB4, HT93 = conditions: cited from earlier work
[4] = system: retinoic acid receptors (RARs); conditions: reporter constructs; cited from earlier work
all cells = conditions: Zhang et al, 2001b; cited from earlier work
[5] = system: breast carcinomas with high erbB2 expression; assay: Breast carcinomas in FVB/N2O2 c-neu mice, ultrasound imaging; type: in vivo
Procedure: FIG. 11. Peptide conjugate LTVSPWY-α-TOS (SEQ ID NO 1) suppresses breast carcinomas. FVB/N2O2 c-neu female mice of >7 months of age with breast carcinomas, as detected by ultrasound imaging (USI), were treated by intraperitoneal injection of the vehicle or 5 μmol per mouse per dose of LTVSPWY-α-TOS (SEQ ID NO 1) solubilised in corn oil/ethanol (100:5, v/v) at times shown. The tumours were visualised and quantified using USI and are expressed relative to their volume at the onset of the treatment (A). […] The volume was […] at the onset of the experiment for both tumors. Data shown are mean values±SD (n=4-6) and the USI images are representative of tumours from each group.
This example describes the targeting of an α-TOS pro-drug to cancer cells over-expressing the receptor tyrosine kinase erbB2. An adduct of α-TOS was linked to the heptapeptide LTVSPWY (SEQ ID NO 1), which peptide is known for targeting cancer cells over-expressing erbB2. […] In fact, there was an unexpected 90% relative reduction in size of treated tumors compared to the untreated control.

T1 sequence (Q8K2B3 43-664): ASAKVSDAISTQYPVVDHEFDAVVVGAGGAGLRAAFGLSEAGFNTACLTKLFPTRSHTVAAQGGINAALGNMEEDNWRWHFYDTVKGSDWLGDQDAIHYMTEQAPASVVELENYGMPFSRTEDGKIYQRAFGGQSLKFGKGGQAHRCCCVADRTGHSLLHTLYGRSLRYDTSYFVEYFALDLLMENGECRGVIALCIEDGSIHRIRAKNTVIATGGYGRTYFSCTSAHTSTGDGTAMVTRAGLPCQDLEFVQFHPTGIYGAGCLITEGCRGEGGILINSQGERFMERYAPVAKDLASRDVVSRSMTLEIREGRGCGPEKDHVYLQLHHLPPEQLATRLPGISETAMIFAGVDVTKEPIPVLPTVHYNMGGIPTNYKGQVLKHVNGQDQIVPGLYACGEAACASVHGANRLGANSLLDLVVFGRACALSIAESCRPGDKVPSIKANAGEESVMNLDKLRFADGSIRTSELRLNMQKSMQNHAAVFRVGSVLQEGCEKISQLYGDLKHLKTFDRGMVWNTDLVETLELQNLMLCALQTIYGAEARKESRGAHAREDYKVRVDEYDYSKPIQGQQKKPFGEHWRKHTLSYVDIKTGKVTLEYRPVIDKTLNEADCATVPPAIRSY
T1 sequence (Q9CQA3 31-282): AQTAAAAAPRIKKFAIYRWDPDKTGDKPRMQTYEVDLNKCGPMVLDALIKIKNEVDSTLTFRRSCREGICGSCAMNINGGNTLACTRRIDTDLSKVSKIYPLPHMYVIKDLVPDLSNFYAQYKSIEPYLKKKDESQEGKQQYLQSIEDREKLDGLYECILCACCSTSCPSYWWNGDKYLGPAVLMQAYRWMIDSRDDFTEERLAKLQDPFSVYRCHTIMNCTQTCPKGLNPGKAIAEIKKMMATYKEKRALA
T1 sequence (Q9CZB0 30-169): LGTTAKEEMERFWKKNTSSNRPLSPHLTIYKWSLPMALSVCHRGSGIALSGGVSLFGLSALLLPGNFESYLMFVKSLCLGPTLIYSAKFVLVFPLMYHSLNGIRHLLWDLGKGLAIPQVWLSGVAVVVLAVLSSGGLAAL
T1 sequence (Q9CXV1 57-159): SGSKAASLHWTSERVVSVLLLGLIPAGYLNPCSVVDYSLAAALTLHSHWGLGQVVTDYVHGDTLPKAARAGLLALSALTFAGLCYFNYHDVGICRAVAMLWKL

O=C(O)C(=O)CBr [Compound 3-BP, 3-bromopyruvate, reference compound]
cellular ATP levels [1]: more potent inhibitors than α-TOS
apoptosis (MDA-MB-453 cells): strikingly resistant to killing by 3-BP, even with concentrations as high as 100 μM
apoptosis after Akt1 knock-down (MDA-MB-453 cells): particularly marked increase in cytotoxic responsiveness; also recorded: sensitizes
apoptosis (MCF-7 cells): more sensitive to killing by 3-BP under hypoxia than normoxia
complex II-mediated MTT reduction ([2]; absence of added succinate, 4 h): potent inhibitors of the complex II-mediated MTT reduction
inhibition of MTT reduction after MitoQ pre-incubation [2]: not significantly different
enzymatic reduction of MTT [2]: significant decreases occurring in the levels of MTT reduction
tumor growth [3]: either growth arrest or partial regression

Cc1c(C)c2c(c(C)c1OC(=O)C(=O)O)CCC(C)(CCCC(C)CCCC(C)CCCC(C)C)O2 (stereo not shown) [Compound 10]
cytotoxicity in mice inoculated with B16-F1 melanoma cells (B16-F1/nude mice): non-selective cytotoxicity

Cc1c(C)c2c(c(C)c1OC(=O)CC(=O)O)CCC(C)(CCCC(C)CCCC(C)CCCC(C)C)O2 (stereo not shown) [Compound 11]
cytotoxicity in mice inoculated with B16-F1 melanoma cells (B16-F1/nude mice): non-selective cytotoxicity

COc1c(C)c(C)c2c(c1C)CCC(C)(CCCC(C)CCCC(C)CCCC(C)C)O2 (stereo not shown) [Compound 18]
pro-apoptotic activity (Jurkat): inactive

CCC(=O)Oc1c(C)c(C)c2c(c1C)CCC(C)(CCCC(C)CCCC(C)CCCC(C)C)O2 (stereo not shown) [Compound 19]
pro-apoptotic activity (A549): inactive

Cc1c(C)c2c(c(C)c1OC(=O)CCCCCC(=O)O)CCC(C)(CCCC(C)CCCC(C)CCCC(C)C)O2 (stereo not shown) [Compound 24]
pro-apoptotic activity (C1271): no activity at all

CCOC(=O)CCC(=O)Oc1c(C)c(C)c2c(c1C)CCC(C)(CCCC(C)CCCC(C)CCCC(C)C)O2 (stereo not shown) [Compound 25]
pro-apoptotic activity (C1271): without pro-apoptotic activity

CC(C=CC1=C(C)CCCC1(C)C)=CC=CC(C)=CC(=O)Oc1c(C)c(C)c2c(c1C)CCC(C)(CCCC(C)CCCC(C)CCCC(C)C)O2 (stereo not shown) [Compound 28]
IC50 (NB4, HT93): 100 to 1000 nM
agonism at retinoic acid receptors [4]: acted as agonists for retinoic acid receptors (RARs)

CC(C=CC1=C(C)CCCC1(C)C)=CC=CC(C)=CC(=O)Oc1c(C)c(C)c2c(c1C)CCC(C)(CCCC(C)CCCC(C)CCCC(C)C)O2 (stereo not shown) [Compound 29]
agonism at retinoic acid receptors [4]: acted as agonists for retinoic acid receptors (RARs)

O=C(CC(=O)C(F)(F)F)c1cccs1 [TTFA, 4,4,4-trifluoro-1-(2-thienyl)-1,3-butanedione]
inhibition of MTT reduction after MitoQ pre-incubation [2]: significantly overcome by pre-incubation of the cells with MitoQ
enzymatic reduction of MTT [2]: significantly inhibited the enzymatic reduction of MTT
toxicity to cells (all cells): toxic to all cells

LTVSPWY-α-TOS: adduct of α-TOS linked to the heptapeptide LTVSPWY (SEQ ID NO 1) (also: α-tocopheryl succinate adduct, attachment site not given here)
tumour volume ([5]; day 15, 5 μmol per dose per mouse i.p., representative tumour, volume −40 mm^3 at onset): 34.8 mm^3
relative reduction in size of treated tumors compared to the untreated control ([5]; mouse, in vivo): 90%

B1: TRAIL: human recombinant tumor necrosis factor-related apoptosis—inducing ligand (protein, UniProt P50591 1-281, looked up)
Tumor necrosis factor ligand …: MAMMEVQGGPSLGQTCVLIVIFTVLLQSLCVAVTYVYFTNELKQMQDKYSKSGIACFLKEDDSYWDPNDEESMNSPCWQVKWQLRQLVRKMILRTSEETISTVQEKQQNISPLVRERGPQRVAAHITGTRGRSNTLSSPNSKNEKALGRKINSWESSRSGHSFLSNLHLRNGELVIHEKGFYYIYSQTYFRFQEEIKENTKNDKQMVQYIYKYTSYPDPILLMKSARNSCWSKDAEYGLYSIYQGGIFELKENDRIFVSVTNEHLIDMDHEASFFGAFLVG
cellular ATP levels [1]: more potent inhibitors than α-TOS
apoptosis (MDA-MB-453 cells): much more resistant to apoptosis
apoptosis after Akt1 knock-down (MDA-MB-453 cells): sensitizes
